We go through four substances from patent EP1298214A2, “Plant thioesterases” (Calgene LLC, priority 1990, dated 1991).

In assay [1] the test system is Cuphea C10 acyl-ACP thioesterase. Nature of the assay: Cuphea thioesterase substrate specificity at the hydroxyapatite stage (Example 9A). The class given is biochemical, Cuphea hookeriana. The conditions noted are these: hydroxyapatite stage in purification. The procedure: Following the same general procedures as outlined in Example 1, to assay for C10 thioesterase activity, the following mixture is incubated at 30° for 10-60 min: 50µl sample to be tested in the same or similar "extraction buffer" described in Example 9A, and approximately 250pmol of [^14C]-radiolabeled acyl-ACP substrate, (usually decanoyl-ACP is labeled in the carboxylate group to 50-60µCi/µmol) in a total volume of […], for a final decanoyl-ACP concentration of 0.5-5.0µM, typically 5.0µM. The reaction is stopped by adding 0.5ml 10% (v/v) cold (4°) acetic acid and placing the reaction mixture on ice for a few minutes. The fatty acid product of the hydrolytic enzyme action is extracted away from the unhydrolyzed substrate by adding 2ml diethyl ether and mixing vigorously. The ether is transferred to 5ml scintillation fluid for scintillation counting. Additional ether extracts may be performed to recover remaining traces of product for more accurate quantitation of the activity if desired.
The resulting preparation is then subjected to hydroxyapatite column chromatography. The following method applies to ammonium sulfate fraction from 100g fresh weight of starting seed tissue. The dialyzed ammonium sulfate fraction (35-40ml) is applied to a column of hydroxyapatite (2.5cm x 14cm bed height of Bio-Gel HTP from Bio-Rad Inc.; Richmond, CA, catalog no. 130-0420), equilibrated in 50mM KH2PO4-KOH pH 6.9, 10% (v/v) glycerol, 4mM 2-mercaptoethanol. The column is then washed (flow rate 1.5ml/min throughout) with 280ml of the same buffer. Elution is accomplished with a 580ml linear gradient from these conditions to 350mM KH2PO4-KOH pH 6.9, 10% (v/v) glycerol, 4mM 2-mercaptoethanol, collecting fractions of 12ml volume. The eluted fractions are assayed for hydrolase activity using decanoyl-ACP as substrate. […]
The substrate specificity of Cuphea C10 acyl-ACP thioesterase towards medium-chain acyl-ACP's has been determined at the hydroxyapatite stage in purification, as described in Example 9A: Table 6

Assay [2] deals with pET3a-THI0 E. coli lysate (truncated Bay 12:0-ACP thioesterase). Put plainly: Acyl-ACP hydrolysis by lysate of E. coli expressing truncated Bay thioesterase cDNA. The class given is biochemical, Umbellularia californica. The conditions noted are these: 1 hour induction with 1mM IPTG. The procedure:
To assay for C12 thioesterase activity the following mixture is incubated at 30° for 30 min: "buffer" comprising 7mM KH2PO4-KOH pH 8, 20% v/v glycerol, 1mM dithiothreitol (DTT), 0.1% v/v Triton X100; sample to be tested for activity in the same or similar buffer as the "extraction buffer" described in Example 2; and 5µl of ^14C-radiolabeled lauroyl-ACP substrate for a total volume of 100µl and final lauroyl-ACP concentration of 0.5µM. Lauroyl-ACP substrate is prepared according to the method of Rock et al (Methods in Enzymology (1981) 72:397-403), using ACP prepared from Escherichia coli by the method of Rock and Cronan (Methods in Enzymology (1981) 71:341-351). The laurate is radiolabeled in the carboxylate group at a specific radioactivity of 50-60µCi/µmol.
The reaction is stopped by adding 0.5ml cold (0°) 10% v/v acetic acid. The fatty acid product of the hydrolytic enzyme action is extracted away from the unhydrolyzed substrate by adding 1ml diethyl ether and mixing vigorously. After settling for a few minutes the upper ether layer is transferred to 5ml scintillation fluid for determination of radioactivity by liquid scintillation spectrometry. Additional ether extractions may be performed to recover remaining traces of the reaction product for more accurate quantitation of the enzyme activity if desired. The amount of ether-extracted radioactivity is a direct measure of C12-preferring acyl-ACP thioesterase activity, provided the amount of enzyme is not sufficient to hydrolyze more than about 25% of the substrate. With greater activity than this the relationship between radioactivity in the ether layer and the quantity of enzyme becomes markedly nonlinear. The enzyme preparation must then be diluted appropriately to bring the activity into the linear range of the assay.
A pET3a vector (Rosenberg, et al., Gene (1987) 56:125-135) is used in an E. coil strain BL21 (PE3) (Studier and Moffat, J. Mol. Biol. (1986) 189:113-130) host for this study. The pET3a vector contains a promoter and 33 bp of the 5' reading frame of bacteriophase T7. T7 polymerase is under the regulatory control of an isopropyl-b-D-thiogalactopyranoside (IPTG)-inducible lac UV5 promoter found in the E. coli BL21 (DE3) strain. Thus, by the addition of IPTG to E. coli BL21 (DE3) transformed with pET3a, the T7 promoter will be activated.
Constructs are prepared containing the truncated cDNA of Fig. 2 fused in reading frame by deletion of the BamHI/EcoRI fragment and replacement of the thioesterase sequence. E. coli are transformed with pET3a constructs containing the thioesterase (pET3a-THI0) and unmodified pET3a as a control. The E. coli are grown at 37°C in liquid medium and expression is induced by the addition of 1mM IPTG. […]

pET3a-THI0 E. coli lysate (truncated Bay 12:0-ACP thioesterase), sequence (Q41635 143-382 limits assumed): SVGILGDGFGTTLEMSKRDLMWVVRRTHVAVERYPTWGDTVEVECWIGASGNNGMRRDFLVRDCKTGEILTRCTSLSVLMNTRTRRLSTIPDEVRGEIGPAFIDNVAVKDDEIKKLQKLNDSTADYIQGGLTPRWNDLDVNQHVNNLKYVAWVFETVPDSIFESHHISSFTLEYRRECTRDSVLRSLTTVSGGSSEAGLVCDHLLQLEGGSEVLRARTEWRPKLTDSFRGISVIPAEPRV

For 14:0-ACP, the “Hydrolysis Activity (mean)” value in assay [1] was 4055 pmol/min. Also, the “Hydrolysis Activity (mean cpm in ether extract)” value in assay [2] came out at 1035 cpm.

16:0-ACP: the “Hydrolysis Activity (mean cpm in ether extract)” value in assay [2] is recorded as 1900 cpm. As for decanoyl-ACP [10:0-ACP], the “Hydrolysis Activity (mean)” value in assay [1] is given as 6950 pmol/min. In assay [2], the “Hydrolysis Activity (mean cpm in ether extract)” value is on record as 621 cpm. With lauroyl-ACP [12:0-ACP], in assay [1], the “Hydrolysis Activity (mean)” value was found to be 1032 pmol/min. In addition, in assay [2], the “Hydrolysis Activity (mean cpm in ether extract)” value turned out to be 2127 cpm.
